Experimental data reported in patent publication US20180327461A1, “COMPOSITIONS AND METHODS FOR CONTROL OF VECTOR-BORNE DISEASE” (STC.UNM, priority 2015, published 2018).

Columns and labels:
[1] = tested on: X. fastidiosa strain Temecula; format: cell-based, Xylella fastidiosa
P. agglomerans = format: cell-based, Pantoea agglomerans

Row | Compound | concentration that killed X. fastidiosa [1] | toxicity to X. fastidiosa compared with P. agglomerans [1] | concentration killing P. agglomerans relative to concentration killing X. fastidiosa (P. agglomerans) | concentration that killed P. agglomerans (P. agglomerans)
1 | CC[C@H](C)[C@H](NC(=O)CN)C(=O)NCC(=O)N[C@@H](C)C(=O)N[C@H](C(=O)N[C@@H](CC(C)C)C(=O)N[C@@H](CCCCN)C(=O)N[C@H](C(=O)N[C@@H](CC(C)C)C(=O)N[C@H](C(=O)N[C@H](C(=O)NCC(=O)N[C@@H](CC(C)C)C(=O)N1CCC[C@H]1C(=O)N[C@@H](C)C(=O)N[C@@H](CC(C)C)C(=O)N[C@H](C(=O)N[C@@H](CO)C(=O)N[C@@H](Cc1c[nH]c2ccccc12)C(=O)N[C@H](C(=O)N[C@@H](CCCCN)C(=O)N[C@@H](CCCNC(=N)N)C(=O)N[C@@H](CCCCN)C(=O)N[C@@H](CCCNC(=N)N)C(=O)N[C@@H](CCC(N)=O)C(=O)N[C@@H](CCC(N)=O)C(N)=O)[C@@H](C)CC)[C@@H](C)CC)[C@@H](C)O)[C@@H](C)O)C(C)C)C(C)C [melittin, Melittin] | 5 µM | more toxic to X. fastidiosa than P. agglomerans | five times higher | 25 µM
2 | scorpine-like molecule [SLM] | 25 µM | more toxic to X. fastidiosa than P. agglomerans |  | > 75 µM
